Test results as given in paper PMC9230671, “Fluorochrome Selection for Imaging Intraoperative Ovarian Cancer Probes” (Pharmaceuticals, 2022).

Experiments:
COX-1 = target: T1, COX-1 (Ovis aries, UniProt P05979); assay: COX-1 inhibition, COX (ovine/human) inhibitor screening assay kit; format: biochemical
T1 construct: purchased Cayman Chemicals (bought through Sigma-Aldrich) 560131
T1 sequence (P05979 25-600): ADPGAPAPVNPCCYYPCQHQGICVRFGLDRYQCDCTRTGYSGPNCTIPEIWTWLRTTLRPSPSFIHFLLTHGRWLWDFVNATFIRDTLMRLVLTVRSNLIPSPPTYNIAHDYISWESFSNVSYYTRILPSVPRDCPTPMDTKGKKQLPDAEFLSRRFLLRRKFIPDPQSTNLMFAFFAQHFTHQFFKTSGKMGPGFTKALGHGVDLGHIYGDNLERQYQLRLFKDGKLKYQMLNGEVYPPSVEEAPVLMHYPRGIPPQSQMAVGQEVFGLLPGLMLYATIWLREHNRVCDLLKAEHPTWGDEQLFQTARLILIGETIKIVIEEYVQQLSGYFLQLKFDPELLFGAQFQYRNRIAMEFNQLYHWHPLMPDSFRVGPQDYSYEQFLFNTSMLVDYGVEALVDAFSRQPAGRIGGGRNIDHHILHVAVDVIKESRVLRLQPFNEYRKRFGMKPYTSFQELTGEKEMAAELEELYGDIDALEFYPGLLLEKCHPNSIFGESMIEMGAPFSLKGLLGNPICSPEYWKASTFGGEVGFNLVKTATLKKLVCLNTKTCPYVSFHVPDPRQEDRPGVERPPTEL
Method: Cell culture reagents were purchased from Euroclone (Milan, Italy). COX (ovine/human) inhibitor screening assay kit (Catalog No. 560131, Cayman Chemicals, Ann Arbor, MI, USA) was purchased from Sigma-Aldrich, Burlington, MA, USA. […] The other reagents were purchased from Sigma-Aldrich, Burlington, MA, USA.
The COX-1/2 inhibition screening experiments were carried out according to the manufacturer’s instructions. The plate was incubated for 60 min at r.t. under shaking and read with the Tecan Infinite 200 Microplate Reader at λ = 405 nm.
The graph between percent inhibition of the enzyme and corresponding concentration of the compound provided IC50 values for the probe compounds.

OVCAR-3 xenograft tumors = assay: NIR fluorescence imaging / biodistribution in OVCAR-3 s.c. xenograft models; format: in vivo, NSG mice; settings: for tumor-to-background ratio (TBR): OVCAR-3 s.c. NSG mice, 100 µL of 500 µM i.v., after 24 h; for clearance pattern (organ): ex vivo NIR FLI 6 h after 500 µM i.v., OVCAR-3 mice
Method: To assess the capacity of both conjugates to visualize ovarian xenograft tumors “in vivo” and evaluate accumulation and clearance behavior of the conjugates, kinetic imaging was performed at six different time-points. Subcutaneously engrafted OVCAR-3 NSG mice were injected with 100 µL of 500 µM RR11 or 23 (MSA14) intravenously into the tail vein (Figure 3). […] Tumor-specific fluorescence was obtained 4, 6, and 24 h after RR11 injection, with a mean tumor-to-background ratio (TBR) of 1.74 after 24 h. In OVCAR-3 bearing NSG mice (n = 3), injected with 23 (MSA14), high liver signals (ventral view, #) were obtained at all time points with high compound accumulation in the tumors at 24 h (*, Figure 3B). The best TBR of 1.44 was achieved after 24 h. Residual background fluorescence was predominantly observed in the spine and limbs as well as in the excretion organs.
Following the biodistribution over time “in vivo”, we assessed the accumulation of the compounds “ex vivo” at 6 h. In Figure 4A, RR11-induced tumor-specific signal, along with high fluorescence in kidneys, gallbladder, stomach, and lungs, can be observed. […] The higher gastrointestinal fluorescence signal in RR11-imaged mice can derive from auto-fluorescent alfalfa containing diet, which is acquired in the lower wavelength of RR11. The main differences between the accumulation and clearance behavior are marked with an arrow, indicating two different clearance patterns of the compounds through liver (23, MSA14) and kidney (RR11). Finally, the fluorescence of 23 (MSA14) was evaluated in a clinically compatible intraoperative setting using the FLARE® system to assess the suitability of the COX-1 targeted NIR compound for FIGS and its potential clinical translation (Figure 4B). The “in vivo” and “ex vivo” intraoperative images confirm the results from Figure 3B and Figure 4A. […] While the tumor fluorescence intensities were higher than those of kidneys, the fluorescence intensities in the gallbladder and lungs were the highest.
Female NOD-scid IL2rγ^null (NSG) mice, aged 6 to 25 weeks were maintained under defined floral conditions and no more than five mice were housed in individually ventilated (HEPA-filtered air) cages, kept on a 12 h dark/night schedule at a constant temperature of 21 °C and at 50% relative humidity at the University of Bergen’s animal facility. Observations of body weight and general condition including activity levels, appearance, and food intake were monitored twice weekly, and humane endpoints were defined with the use of score sheets. When indicated, animals were euthanized according to institutional guidelines. […]

| IC50 (COX-1) [nM] | inhibition at 50 µM (COX-1; at 50 µM compound final concentration, read-out: COX-1 % inhib.) [%] | clearance pattern (organ) (OVCAR-3 xenograft tumors) | SI (selectivity index) (COX-1) | COX-1 % inhib. (COX-1; at 50 µM compound final concentration) [%] | SMILES | tumor-to-background ratio (TBR) (OVCAR-3 xenograft tumors) |
| --- | --- | --- | --- | --- | --- | --- |
| 87 | 57 | liver |  |  | CCN1/C(=C/C=C/C=C/C=C/C2=[N+](CCCCCC(=O)NCCCCNC(=O)Cc3onc(-c4ccc(OC)cc4)c3-c3ccc(OC)cc3)c3ccc4ccccc4c3C2(C)C)C(C)(C)c2c1ccc1ccccc21 [23 (MSA14), 3-(6-(4-(2-(3,4-Bis(4-methoxyphenyl)isoxazole-5-yl)acetamido)butyl)amino-6-oxohexyl)-2-[7-(1,3-dihydro-1,1-dimethyl-3-ethyl-2H-benz[e]indolin-2-yl-idene)-1,3,5-heptatrienyl]-1,1-dimethyl-3-(6-carboxilato-hexyl)-1H-benz[e]indolium chloride] | 1.44 |
| 32 |  | kidney | 75 | 83 | COc1ccc(-c2noc(CC(=O)NCCCCNc3cc4[o+]c5cc(N(C)C)ccc5nc4c4ccccc34)c2-c2ccc(OC)cc2)cc1.[Cl-] [RR11, N-[4-(9-dimethylimino-9H-benzo[a]phenoxazin-5-ylamino)butyl]-2-(3,4-bis(4-methoxyphenyl)isoxazol-5-yl)acetamide chloride, reference compound] | 1.74 |
